# Data as given in patent US20240366611A1, “METHODS OF TREATING A DISEASE OR DISORDER” (Ascentage Pharma (Suzhou) Co., Ltd., priority 2021, published 2024).
# Key:
# [1] = tested on: CD4+CD45RBhigh T-cell transfer-induced IBD in CB17 mice; test: T cell transfer induced inflammatory bowel disease (IBD) model; type: in vivo; details: 90 mg/kg po qd day 14 to day 41
# Source text: Female CB17 mice (8 weeks old) were obtained from Zhejiang Vital River Laboratory Animal Co. Ltd. Animals were housed and handled in a temperature-controlled environment with a 12-h light/12-h dark cycle. A total of 30 mice were assigned to 3 groups by randomization based on body weight.
# To generate T cell transfer induced colitis, 95 female Balb/c mice, aged 8-10 weeks, were used to prepare naive CD4^+CD45RB^high T and CD4^+CD45RB^low T cells. The mouse spleens were harvested in precooled DPBS, grinded into cell suspension and passed through a 70 μm cell filter after erythrocytes lysed by ACK. Cells were collected and counted by centrifugation. Then, CD4 positive T cells were isolated by using negative magnetic bead separation kit. CD4^+CD45RB^high naive T cells were selected by flow cytometry and used for model construction. 20 CB17 model mice were intraperitoneally injected with 5×10^5 naive CD4^+CD45RB^high T cells each on Day 0. 10 mice in negative control group were intraperitoneally injected with 5×10^5 CD4^+CD45RB^low T cells on Day 0.
# Mice in Group 2 were treated with vehicle for 28 days (po, qd, from day 14 to day 41). Mice in Group 3 were treated with 90 mg/kg Cpd. 73 for 28 days (therapeutic regimen, po, qd, from day 14 to day 41). The protocols and procedures involving the care and use of animals were approved by the Institutional Animal Care and Use Committee (IACUC) at WuxiApptec (Shanghai, China).
# Clinical signs of IBD were assessed every day based on the score of disease activity index (DAI) which was evaluated from two parameters using a scoring system from 0 to 4: stool consistency (0, normal stool; 1, soft but still formed stool; 2, soft and not formed stool; 3, very soft and wet stool; 4, watery diarrhea), and body weight loss (0, no body weight loos; 1, 1-5% body weight loss; 2, 6-10% body weight loss; 3, 11-20% body weight loss; 4, >20% body weight loss).
# At the end of the study (day 42), the animals were euthanized, dissected and the entire colon was quickly removed and gently cleared of feces.
# At the end of the study (day 42), all the animals were sacrificed by CO2. The colon was Swiss-rolled and fixed with neutralized PFA followed by H&E staining. After that, the pathologists from WuXi clinical pathological analysis platform, who were blinded to animal ID, reviewed the H&E staining and scored. The pathological scoring standards were as follows: crypt architecture (normal, 0; severe crypt distortion with loss of entire crypts, 3), degree of inflammatory cell infiltration (normal, 0; dense inflammatory infiltrate, 3), muscle thickening (normal, 0; marked muscle thickening present, 3), goblet cell depletion (absent, 0; present, 1) and crypt abscess (absent, 0; present, 1).
# [2] = tested on: H3K27me3 in PBMC monocytes; test: H3K27me3 level in PBMC monocytes (FACS, H3K27me3/H3 ratio); type: in vivo, CD-1 mice; details: vs vehicle
# Protocol: (§1) Female CD-1 mice (8 weeks old) were housed and handled in a temperature-controlled environment with a 12-h light/12-h dark cycle. A total of 25 mice were assigned to 5 groups by randomization based on body weight, followed by 5 days of treatment with vehicle (po, qd), 3 mg/kg Cpd. 73 (po, qd), 10 mg/kg Cpd. 73 (po, qd), 30 mg/kg Cpd. 73 (po, qd), or 90 mg/kg Cpd. 73 (po, qd). The protocols and procedures involving the care and use of animals were approved by the Institutional Animal Care and Use Committee (IACUC) of WuXiAppTec (Shanghai) Co., Ltd. (Shanghai, China).
# (§2) Mice were euthanatized 4 hours post the last dose. Whole blood and bone marrow were collected. Bone marrow cells were flushed from femur and tibia with IMDM+/+ (IMDM, 10% heat inactivated FBS, 100 U/mL penicillin and 100 μg/mL streptomycin). Aggregate was removed by passing through 40 μm cell strainer. 5 mL DPBS was used to pellet the cells after centrifugation, and the cell number was counted. Whole blood was added with 1×RBC lysis buffer remove RBC (whole blood: 1×RBC lysis buffer=1:9), and mononuclear cells were collected by centrifugation. The cells were then washed with 1×DPBS for once and resuspended in 3 ml DPBS after centrifugation followed by cell number counting.
# (§3) Bone marrow cells were stained with FITC-conjugated anti-mouse TER-119 antibody (Thermo Fisher, 11-5921-82) and eFluor 506-conjugated anti-mouse CD45 antibody (Thermo Fisher, 69-0451-82). TER-119+ cells were erythroid lineage cells. PBMC were stained with eFlour 450-conjugated anti-mouse CD11b antibody (Invitrogen, 48-0112-82), PerCP-eFluor710-conjugated anti-mouse CD3 antibody (Invitrogen, 46-0032-82), eFluor 506-conjugated anti-mouse CD45 antibody (Thermo Fisher, 69-0451-82). CD45+CD3−CD11b+ cells were monocytes from PBMC.
# (§4) After washing, centrifugation and fixation, the cells were permeabilized and further incubated with antibodies of H3K27m3 (Tri-Methyl-Histone H3 (Lys27) (C36B11) Rabbit mAb (PE Conjugate), CST, 40724S) and H3 (Histone H3 (D1H2) XP® Rabbit mAb (Alexa Fluor®647 Conjugate), CST, 12230S), followed by FACS analysis to quantify the mean fluorescence intensity of target cells. The ratio between the fluorescence intensity of H3K27me3 and H3 were used to reflect the level of H3K27me3 in the cells.
# [3] = tested on: H3K27me3 in TER119+ erythroid lineage cells; test: H3K27me3 level in TER119+ erythroid lineage cells from bone marrow (FACS, H3K27me3/H3 ratio); type: in vivo, CD-1 mice
# Protocol: as §1, §2, §3, §4
structure (smiles),measurement,setting,value
"CC(C)N1Cc2cc(C(F)(F)F)ncc2-c2cnc(NCc3c(F)ccc4c3CCO4)n3cnc(c23)C1=O [Cpd. 73, 12-(((5-fluoro-2,3-dihydrobenzofuran-4-yl)methyl)amino)-4-isopropyl-7-(trifluoromethyl)-4,5-dihydro-3H-2,4,8,11,12a-pentaazabenzo[4,5]cycloocta[1,2,3-cd]inden-3-one]",body weight loss,[1],improved
same,colon length,"[1]; day 42, vehicle 7.72±0.18 cm",10.26±0.22 cm
same,"pathological score (H&E, colon)","[1]; day 42, vehicle 9.00±0.47",3.70±0.37
same,colon weight,"[1]; day 42, vehicle 439.10±25.46 mg",323.40 ± 16.06 mg
same,DAI score,"[1]; on day 42, vehicle 4.90±0.41",1.4±0.27
same,percent of decrease of H3K27me3 level,[2]; 3 mg/kg po qd×5 days,17.9%
same,percent of decrease of H3K27me3 level,[2]; 10 mg/kg po qd×5 days,40.5%
same,percent of decrease of H3K27me3 level,[2]; 30 mg/kg po qd×5 days,8.8%
same,percent of decrease of H3K27me3 level,[2]; 90 mg/kg po qd×5 days,41.2%
same,decrease in H3K27me3 level,"[3]; 3 mg/kg po qd×5 days, vs vehicle",21.2%
same,decrease in H3K27me3 level,"[3]; 10 mg/kg po qd×5 days, vs vehicle",18.7%
same,decrease in H3K27me3 level,"[3]; 30 mg/kg po qd×5 days, vs vehicle",21.6%
same,decrease in H3K27me3 level,"[3]; 90 mg/kg po qd×5 days, p<0.01 vs vehicle",39.7%
